Counter-ions that a name gives are not always drawn.
Tests used:
[1] = tested on: Staphylococcus aureus MW2 delta-mecA (mecA-); assay: IC50 (growth, competition assay); conditions: cefoxitin: subinhibitory
Summary of the method: (§1)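 Two fluorescent S. aureus MW2 strains, one carrying and one lacking the resistance gene, were pre-induced, mixed 1:1 and grown unshaken in LB in 1536-well plates for 20 h at 37 °C and 90% humidity with a subinhibitory drug dose set each day. Compounds were tested on five- or nine-point 2-fold gradients in two dye-swapped replicates. DsRed (540/590) and GFP (485/520) signals were scaled per plate between the medians of single-strain controls, and No Treatment was then set to 0.5. For each strain, IC50 was taken as the dose that halved the No Treatment signal, or else the maximal signal.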

[2] = tested on: Staphylococcus aureus MW2 (mecA+); assay: IC50 (growth, competition assay); conditions: cefoxitin: subinhibitory
Summary of the method: as §1

Compound	IC50 ([1]; fluorescent label: DsRed)	IC50 ([1]; fluorescent label: GFP)	IC50 ([2]; fluorescent label: DsRed)	IC50 ([2]; fluorescent label: GFP)
O=c1[nH]c(=O)n([C@H]2C[C@H](O)[C@@H](CO)O2)cc1F [Floxuridine]	< 0.498 µM	< 0.498 µM	< 0.498 µM	< 0.498 µM
CC1CCc2cc(F)cc3c(=O)c(C(=O)O)cn1c23 (stereo not drawn) [Flumequine]	< 9.85 µM	< 9.85 µM	< 9.85 µM	< 9.85 µM
C[C@@H](O[C@H]1OCCN(Cc2nn(P(=O)(O)O)c(=O)[nH]2)[C@H]1c1ccc(F)cc1)c1cc(C(F)(F)F)cc(C(F)(F)F)c1 [Fosaprepitant dimeglumine]	17.2 µM	31.6 µM	53.4 µM	49.3 µM
CC(=O)O[C@H]1C[C@@]2(C)[C@@H](C[C@@H](O)[C@H]3[C@@]4(C)CC[C@@H](O)[C@@H](C)[C@@H]4CC[C@@]32C)/C1=C(\CCC=C(C)C)C(=O)O [Fusidic acid sodium]	< 9.85 µM	< 9.85 µM	< 9.85 µM	< 9.85 µM
CC(C)=CCC[C@]1(C)C=Cc2c(O)c3c(c(CC=C(C)C)c2O1)O[C@]12C(=C[C@@H]4C[C@H]1C(C)(C)O[C@@]2(C/C=C(/C)C(=O)O)C4=O)C3=O [GAMBOGIC ACID]	< 9.85 µM	< 9.85 µM	< 9.85 µM	< 9.85 µM
COC(=O)c1c(OC)cc2c(c1C)Oc1c(Cl)c(O)c(Cl)c(C)c1C(=O)O2 [GANGALEOIDIN]	38.3 µM	< 9.85 µM	< 9.85 µM	62.4 µM
CC(C)=CCCC1(C)C=Cc2c(O)c3c(c(CC=C(C)C)c2O1)OC12C(=CCCC1C(C)(C)O[C@@]2(C/C=C(\C)C(=O)O)C(=O)O)C3=O (stereo partly drawn) [GARCINOLIC ACID]	< 9.85 µM	< 9.85 µM	< 9.85 µM	14.8 µM
CN[C@@H]1[C@@H](O)[C@@H](O[C@@H]2[C@@H](O)[C@H](O[C@H]3O[C@H]([C@@H](C)O)[C@@H](O)[C@H](O)[C@H]3N)[C@@H](N)C[C@H]2N)OC[C@]1(C)O [GENETICIN]	< 9.85 µM	12.4 µM	< 9.85 µM	12.5 µM
Cc1cc2c(C(C)C)c(O)c(O)c(C=O)c2c(O)c1-c1c(C)cc2c(C(C)C)c(O)c(O)c(C=O)c2c1O [GOSSYPOL]	< 9.85 µM	< 9.85 µM	< 9.85 µM	< 9.85 µM
CN(C)c1ccc(C(=C2C=CC(=[N+](C)C)C=C2)c2ccc(N(C)C)cc2)cc1 [GVS]	< 9.85 µM	< 9.85 µM	< 9.85 µM	< 9.85 µM
Cc1cc(SCc2sc(-c3ccc(C(F)(F)F)c(F)c3)nc2C)ccc1OCC(=O)O [GW0742]	< 9.85 µM	< 9.85 µM	11.6 µM	15.1 µM
COc1ccc(COc2ccc(Cc3cnc(N)nc3N)cc2OC)cc1 [GW2580]	< 9.85 µM	< 9.85 µM	15.1 µM	16.2 µM
O=C(O)Cc1cccc(OCCCN(Cc2cccc(C(F)(F)F)c2Cl)CC(c2ccccc2)c2ccccc2)c1 [GW3965 HCl]	< 9.85 µM	< 9.85 µM	< 9.85 µM	< 9.85 µM
O=C1Nc2ccc(I)cc2/C1=C/c1cc(Br)c(O)c(Br)c1 [GW5074]	< 9.85 µM	< 9.85 µM	< 9.85 µM	< 9.85 µM
CC(C)(Sc1ccc(CCN(CCCCC2CCCCC2)C(=O)NC2CCCCC2)cc1)C(=O)O [GW7647]	< 9.85 µM	< 9.85 µM	14.3 µM	13.1 µM
COC1=C2C[C@@H](C)C[C@H](OC)[C@H](O)[C@@H](C)/C=C(\C)[C@H](OC(N)=O)[C@@H](OC)/C=C\C=C(/C)C(=O)NC(=CC1=O)C2=O [Geldanamycin]	< 9.85 µM	< 9.85 µM	< 9.85 µM	< 9.85 µM
Nc1ccn([C@@H]2O[C@H](CO)[C@@H](O)C2(F)F)c(=O)n1 [Gemcitabine hydrochloride]	< 9.85 µM	< 9.85 µM	< 9.85 µM	< 9.85 µM
Cc1cc2c(C(C)C)c(O)c(O)c(C=O)c2c(O)c1-c1c(C)cc2c(C(C)C)c(O)c(O)c(C=O)c2c1O [Gossypol]	< 9.85 µM	< 9.85 µM	< 9.85 µM	< 9.85 µM
CC[C@H](c1ccc(O)cc1)[C@@H](CC)c1ccc(O)cc1 [HEXESTROL]	< 9.85 µM	< 9.85 µM	< 9.85 µM	29.7 µM
COc1ccc(CCN2CCC(Nc3nc4ccccc4n3Cc3ccc(F)cc3)CC2)cc1 [HISMANAL]	45.1 µM	20.2 µM	80.2 µM	106 µM
O=c1cc(O)cc(/C=C/c2ccc(O)c(O)c2)o1 [Hispidin]	50.9 µM	59.1 µM	58.9 µM	54.8 µM
COC1=C(OC)C(=O)C(CCCCCCCCCCO)=C(C)C1=O [IDEBENONE]	15.5 µM	15 µM	22.8 µM	28.8 µM
O=C(c1ccc(Nc2nccc(-c3cc4ccccc4s3)n2)cc1)N1CCC(N2CCCC2)CC1 [IKK-16]	18.3 µM	17.7 µM	49.4 µM	56.8 µM
CCC(=O)O[C@H]1[C@H](O[C@@H]2[C@@H](C)[C@H](O[C@H]3C[C@@](C)(OC)[C@@H](O)[C@H](C)O3)[C@@H](C)C(=O)O[C@H](CC)[C@@](C)(O)[C@H](O)[C@@H](C)C(=O)[C@H](C)C[C@@]2(C)O)O[C@H](C)C[C@@H]1N(C)C [ILOSONE]	< 9.85 µM	< 9.85 µM	< 9.85 µM	17 µM
O=C(Nc1cc(C(F)(F)F)cc(C(F)(F)F)c1)c1cc(Cl)ccc1O [IMD0354]	< 9.85 µM	< 9.85 µM	< 9.85 µM	< 9.85 µM
Oc1c(I)cc(I)c2cccnc12 [IOQUIN]	< 9.85 µM	< 9.85 µM	20.7 µM	17.8 µM
Oc1ccc2ccccc2c1SSc1c(O)ccc2ccccc12 [IPA-3]	< 9.85 µM	< 9.85 µM	< 9.85 µM	< 9.85 µM

From the supplement of paper PMC7695840
